# Laboratory results taken from US8901138B2, “Sulfoximine substituted quinazolines for pharmaceutical compositions” (Boehringer Ingelheim International GmbH, priority 2012, dated 2014).
# Biological target: T1, MNK2a (Homo sapiens, UniProt Q9HBH9)
# T1 construct: made in house
# Assay: MNK2a in vitro kinase assay (assay 1), ADP-Glo
# Format: biochemical
# Details: preactivated GST-MNK2a, 20 μM ATP, read-out: MNK2 IC50
# Experimental: A. MNK2a In Vitro Kinase Assay (Assay 1)
# ASSAY SETUP: The inhibition of kinase activity of MNK2a was assessed using preactivated GST-MNK2a. The white, 384-well OptiPlate F plates were purchased from Perkin Elmer. The ADP-Glo Kinase Assay (including ultra pure ATP) was purchased from Promega (V9103). Activated MNK2a was obtained as described in WO2011/104340. The unlabeled eIF4E peptide (NH2-[…]—CONH2) (SEQ ID NO: 1), differing from Seq. ID No. 5 of WO 2011/104340 by the C-terminal —CONH2 group, was purchased from Thermo Fisher Scientific. All other materials were of highest grade commercially available. Compounds are tested in either serial dilutions or single dose concentrations. The compound stock solutions are 10 mM in 100% DMSO The serial compound dilutions are prepared in 100% DMSO followed by 1:27.3 intermediate dilution in assay buffer. The final DMSO concentration in assay will be <3%. In the 384-well plates 3 μl of test compound from the intermediate dilution is mixed with 4 μl of the activated MNK2 enzyme (final concentration of 10 nM) and 4 μl of the peptide (final concentration of 25 μM)/ultra pure ATP (final concentration of 20 μM), all dissolved in assay buffer. This step is followed by an incubation time of 90 min, then 10 μl of ADP Glo reagent are added, followed by 40 min of incubation. Then 20 μl of kinase detection reagent are admixed. The plates are sealed and after an incubation period of 30 min, the luminescence signal is measured in an Envision reader to determine the amount of produced ADP. All incubation steps are performed at room temperature. The assay buffer consists of 20 mM HEPES, 2 mM DTT, 0.01% BSA, 20 mM MgCl2 and 0.1% Pluronic F-127.
# Each assay microtiter plate contains wells with vehicle controls instead of compound (1% DMSO in water) as reference for the high signal (100% CTL, high signal), and wells containing a potent MNK2 inhibitor (final 20 μM, 1% DMSO) as reference for low signal (0% CTL, low signal).
# The luminescent signal generated is proportional to the ADP concentration produced and is correlated with activated MNK2 activity. The analysis of the data is performed by the calculation of the percentage of ATP consumption of activated MNK2 in the presence of the test compound compared to the consumption of ATP in the presence of activated MNK2 without compound. (RLU(sample)−RLU(low control))*100/(RLU(high value)−RLU(low control)) [RLU=relative luminescence units]
# An inhibitor of the MNK2 enzyme will give values between 100% CTL (no inhibition) and 0% CTL (complete inhibition). Values of more than 100% CTL are normally related to compound/sample specific physico-chemical properties (e.g. solubility, light absorbance, fluorescence).
# IC50 values based on dose response curves are calculated with the AssayExplorer software.
# T1 sequence (Q9HBH9 whole entry): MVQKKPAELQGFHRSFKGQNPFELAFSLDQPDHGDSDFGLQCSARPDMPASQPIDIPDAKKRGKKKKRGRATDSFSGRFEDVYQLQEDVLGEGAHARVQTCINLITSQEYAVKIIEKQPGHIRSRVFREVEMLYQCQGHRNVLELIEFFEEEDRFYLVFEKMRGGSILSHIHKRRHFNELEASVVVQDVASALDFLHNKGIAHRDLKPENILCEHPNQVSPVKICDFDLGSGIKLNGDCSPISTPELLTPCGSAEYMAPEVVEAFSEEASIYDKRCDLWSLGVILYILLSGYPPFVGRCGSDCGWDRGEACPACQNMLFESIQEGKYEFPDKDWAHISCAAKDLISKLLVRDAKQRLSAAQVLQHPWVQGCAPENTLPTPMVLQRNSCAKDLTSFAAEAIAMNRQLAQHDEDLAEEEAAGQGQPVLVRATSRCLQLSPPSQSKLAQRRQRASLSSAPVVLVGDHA
row,Structure (SMILES),IC50
1,Cc1cc(N=S(C)(C)=O)cc2ncnc(Nc3ccc(F)cc3OC3CCC(O)C3)c12 (racemic) [Example 4.3],3 nM
2,CS(C)(=O)=Nc1cc(C(F)(F)F)c2c(Nc3ccc(F)cc3O[C@H]3CCOC3)ncnc2c1 [Example 1.5],3 nM
3,CS(C)(=O)=Nc1cc(Br)c2c(Nc3ccc(F)cc3O[C@H]3CCOC3)ncnc2c1 [Example 1.11],1 nM
4,CS(C)(=O)=Nc1cc(Cl)c2c(Nc3ccc(F)cc3O[C@H]3CCOC3)ncnc2c1 [Example 1.14],1 nM
5,CS(C)(=O)=Nc1cc(Cl)c2c(Nc3cccnc3O[C@H]3CC[C@H](O)CC3)ncnc2c1 [Example 1.16],1 nM
6,Cc1cc(N=S(C)(C)=O)cc2ncnc(Nc3ccc(F)cc3O[C@@H]3CC[C@H]3O)c12 [Example 1.34],3 nM
7,Cc1cc(N=S(C)(C)=O)cc2ncnc(Nc3ccc(F)cc3O[C@@H]3CCOC3)c12 [Example 2.5],3 nM
8,COc1cc(N=S2(=O)CCCC2)cc2ncnc(Nc3cccnc3O[C@H]3CC[C@H](O)CC3)c12 [Example 2.18],1 nM
9,CCS(C)(=O)=Nc1cc(C)c2c(Nc3ccc(F)cc3O[C@H]3CC[C@H](O)CC3)ncnc2c1 (stereo partly shown) [Example 2.22],3 nM
10,CS(C)(=O)=Nc1cc(F)c2c(Nc3ccc(F)cc3OC3CCCC3)ncnc2c1 [Example 2.29],3 nM
11,CO[C@H]1CC[C@H](Oc2ncccc2Nc2ncnc3cc(N=S(C)(C)=O)cc(C)c23)CC1 [Example 2.68],3 nM
12,Cc1cc(N=S(C)(C)=O)cc2ncnc(Nc3ccc(F)cc3O[C@H]3CC[C@H](O)CC3)c12 [Example 2.71],3 nM
13,Cc1cc(N=S(C)(C)=O)cc2ncnc(Nc3ccc(F)cc3O[C@H]3CC[C@@](C)(O)CC3)c12 [Example 2.74],3 nM
14,CS(C)(=O)=Nc1cc(F)c2c(Nc3ccc(F)cc3O[C@H]3CCOC3)ncnc2c1 [Example 2.89],3 nM
15,Cc1cc(N=S(C)(C)=O)cc2ncnc(Nc3ccc(F)cc3O[C@H]3C[C@H](N)C3)c12 [Example 3.14],2 nM
16,COc1cc(N=S(C)(C)=O)cc2ncnc(Nc3ccc(F)cc3O[C@H]3CCOC3)c12 [Example 5.2],2 nM
17,Cc1cc(N=S(C)(C)=O)cc2ncnc(Nc3ccc(F)cc3O[C@@H]3CCN(CC(F)F)C3)c12 [Example 6.14],3 nM
18,CCc1cc(N=S(C)(C)=O)cc2ncnc(Nc3ccc(F)cc3O[C@H]3CCOC3)c12 [Example 7.8],9 nM

# Continued, values first:
row,IC50,Structure (SMILES)
1,1 nM,CS(C)(=O)=Nc1cc(Cl)c2c(Nc3ccc(F)cc3O[C@@H]3CO[C@H]4[C@@H]3OC[C@@H]4O)ncnc2c1 [Example 1.3]
2,1 nM,CS(C)(=O)=Nc1cc(Cl)c2c(Nc3ccc(F)cc3O[C@@H]3CO[C@H]4[C@@H]3OC[C@H]4O)ncnc2c1 [Example 1.6]
3,1 nM,O=S1(=Nc2cc(Cl)c3c(Nc4ccc(F)cc4O[C@@H]4CO[C@@H]5CCO[C@@H]54)ncnc3c2)CCCC1 [Example 1.7]
4,1 nM,O=S1(=Nc2cc(Cl)c3c(Nc4ccc(F)cc4O[C@H]4CCOC4)ncnc3c2)CCCC1 [Example 1.8]
5,1 nM,CO[C@@H]1CO[C@H]2[C@@H]1OC[C@H]2Oc1cc(F)ccc1Nc1ncnc2cc(N=S3(=O)CCCC3)cc(Cl)c12 [Example 1.13]
6,7 nM,Cc1cc(N=S(C)(C)=O)cc2ncnc(Nc3ccc(F)cc3O[C@@H]3CCCC[C@@H]3O)c12 [Example 1.39]
7,1 nM,COc1cc(N=S2(=O)CCCC2)cc2ncnc(Nc3ccc(F)cc3O[C@@H]3CO[C@H]4[C@@H]3OC[C@H]4OC)c12 [Example 2.9]
8,2 nM,Cc1cc(N=S2(=O)CCCC2)cc2ncnc(Nc3ccc(F)cc3OC3COCCOC3)c12 [Example 2.25]
9,2 nM,Cc1cc(N=S2(=O)CCCC2)cc2ncnc(Nc3ccc(F)cc3O[C@@H]3CO[C@H]4[C@@H]3OC[C@H]4O)c12 [Example 2.36]
10,2 nM,Cc1cc(N=S(C)(C)=O)cc2ncnc(Nc3ccc(F)cc3O[C@@H]3CO[C@@H]4CCO[C@@H]43)c12 [Example 2.39]
11,1 nM,Cc1cc(N=S2(=O)CCCC2)cc2ncnc(Nc3ccc(F)cc3O[C@@H]3CO[C@@H]4CCO[C@@H]43)c12 [Example 2.42]
12,1 nM,CO[C@@H]1CO[C@H]2[C@@H]1OC[C@H]2Oc1cc(F)ccc1Nc1ncnc2cc(N=S3(=O)CCCC3)cc(C)c12 [Example 2.43]
13,2 nM,CO[C@H]1CC[C@H](Oc2cc(F)ccc2Nc2ncnc3cc(N=S4(=O)CCCC4)cc(C)c23)CC1 [Example 2.48]
14,3 nM,Cc1cc(N=S(C)(C)=O)cc2ncnc(Nc3ccc(F)cc3OC3COCCOC3)c12 [Example 2.60]
15,2 nM,Cc1cc(N=S2(=O)CCCC2)cc2ncnc(Nc3cccnc3O[C@H]3CC[C@H](O)CC3)c12 [Example 2.69]
16,2 nM,Cc1cc(N=S(C)(C)=O)cc2ncnc(Nc3ccc(F)cc3OC3CCCC3)c12 [Example 2.70]
17,3 nM,Cc1cc(N=S2(=O)CCCCC2)cc2ncnc(Nc3ccc(F)cc3O[C@H]3CCOC3)c12 [Example 2.78]
18,1 nM,Cc1cc(N=S2(=O)CCCC2)cc2ncnc(Nc3ccc(F)cc3O[C@@H]3CO[C@H]4[C@@H]3OC[C@@H]4O)c12 [Example 2.83]
19,2 nM,COc1cc(N=S2(=O)CCCC2)cc2ncnc(Nc3ccc(F)cc3O[C@H]3CC[C@H](O)CC3)c12 [Example 2.90]
20,4 nM,Cc1cc(N=S2(=O)CCC(O)C2)cc2ncnc(Nc3ccc(F)cc3O[C@H]3CCOC3)c12 (stereo partly shown) [Example 2.93]
21,4 nM,Cc1cc(N=S(C)(=O)c2ccncc2)cc2ncnc(Nc3ccc(F)cc3O[C@@H]3CO[C@@H]4CCO[C@@H]43)c12 (stereo partly shown) [Example 2.96]
22,2 nM,COC1CS(=O)(=Nc2cc(C)c3c(Nc4ccc(F)cc4O[C@@H]4CO[C@@H]5CCO[C@@H]54)ncnc3c2)C1 (stereo partly shown) [Example 2.105]
23,3 nM,Cc1cc(N=S2(=O)CCCC2)cc2ncnc(Nc3ccc(F)cc3OC3CCc4ccccc43)c12 (stereo not shown) [Example 4.6]
24,2 nM,Cc1cc(N=S2(=O)CCCC2)cc2ncnc(Nc3ccc(F)cc3O[C@@H]3CCCN(S(C)(=O)=O)C3)c12 [Example 6.3]
25,2 nM,Cc1cc(N=S2(=O)CCCC2)cc2ncnc(Nc3ccc(F)cc3O[C@@H]3CCN(CC(F)F)C3)c12 [Example 6.4]
